These results are taken from patent US4681895A, “Novel guanidinomethylcyclohexanecarboxylic acid compounds and anti-ulcer drug containing the same” (Kanebo, Ltd., priority 1985, dated 1987).

Data set [1] has as its system ethanol-induced gastric ulcer. Put plainly: Activity against ethanol-induced gastric ulcer. In kind it is in vivo, Male Sprague-Dawley rats. The settings on record: Rattus norvegicus; oral, rats, 30 min before 99.5% ethanol 1 ml orally; killed 1 hour after; read-out: ED50, Anti-ethanol-induced ulcer. How it is done:
(§1) The same test compounds as used in Experiment 1 were used.
The experiment was carried out according to the method of Robert et al. [cf. Gastroenterology, 77, 433 (1979)].
Male Sprague-Dawley rats weighing 180-200 g (8 week old), 6-8 per group, were fasted for 24 hours and administered orally with each test compound which was suspended in 1% arabic gum aqueous solution. After 30 minutes, 99.5% ethanol (as a necrotizing agent) was given orally to the rats in a volume of 1 ml. The animals were killed by ether inhalation 1 hour after receiving of ethanol. The stomach of each rat was removed, inflated by injecting 12 ml of 1 % formalin, and immersed in 1% formalin for 15 minutes. Afterward, the mean ulcer index and inhibitory ratio were calculated by the same method as in Experiment 1, and then the ED50 was calculated by dose-response curve.

The test system of data set [2] is indomethacin-induced gastric ulcer. The data set is described as follows: Activity against indomethacin-induced gastric ulcer. The data set is classed as in vivo, Male Sprague-Dawley rats. To be noted: Rattus norvegicus; oral, rats, 15 min before indomethacin 30 mg/kg subcutaneously; killed 5 hours after; read-out: ED50, Anti-indomethacin-induced ulcer. The method, then: as §1
The experiment was carried out by a modified method of that of Okabe et al. [cf. Dig. Dis. Sci., 28, 1034 (1983)].
Male Sprague-Dawley rats weighing 180-200 g (8 week old), 6-8 per group, were fasted for 24 hours and administered orally with each test compound which was suspended in 1% arabic gum aqueous solution. After 15 minutes, indomethacin (in a solution in 3% sodium bicarbonate solution) was given subcutaneously to the rats at a dose of 30 mg/kg. The animals were killed by ether inhalation 5 hours after receiving of indomethacin. The stomach of each rat was removed, inflated by injecting 12 ml of 1% formalin, containing 0.1% pontamine sky blue, and immersed in 1% formalin for 15 minutes. Afterward, the mean ulcer index and inhibitory ratio were calculated by the same method as in Experiment 1, and then ED50 was calculated by dose response curve.

For another data set, the system named is Male ddY mice. Put plainly: Test of acute toxity [minimum lethal dose (MLD)]. The data set is classed as in vivo. To be noted: oral, mice fasted 17 hours, observed for 7 days. The method, then:
as §1
Male ddY mice weighing 20-22 g (4 week old), 5 per group, were fasted for 17 hours and administered orally with each test compound which was suspended in 1% arabic gum aqueous solution.

Data set [3] has as its system stress-induced gastric ulcer. Put plainly: Activity against stress-induced gastric ulcer. To be noted: Rattus norvegicus; oral, rats, 15 min before stress cage in 23° C. water bath for 17 hours; read-out: ED50, Anti-stress-induced ulcer. The data set is classed as in vivo, Male Sprague-Dawley rats. How it is done:
The experiment was carried out by a modified method of that of Takagi and Okabe [cf. Jap. J. Pharmacol., 18, 9 (1968)]. Male Sprague-Dawley rats weighing 180-200 g (8 week old), 6-8 per group, were fasted for 24 hours and administered orally with each test compound which was suspended in 1% arabic gum aqueous solution. After 15 minutes, the animals were placed in a stress cage and immerse vertically to the level of the xiphoid process in a water bath kept at 23° C. for 17 hours. The animals were killed by ether inhalation. The stomach of each rat was removed, inflated by injecting 12 ml of 1% formalin, and immersed in 1% formalin for 15 minutes. The stomach was then incised along the greater curvature and examined for lesions in the glandular portion under a dissecting microscope. The length (mm) of a ulcer was totalled on each animal and it was indicated as the ulcer index. The mean ulcer index (m) in each test compound-treated group was calculated. The control animals received the same procedure without administering of test compound and the mean ulcer index (l) was calculated. Inhibitory ratio of test compound is expressed as follows. Inhibitory ratio (%)=(1-m/l)×100 wherein l is mean ulcer index in control group, and m is mean ulcer index in test compound-treated group. The anti-ulcer activity of test compound (ED50) was calculated by dose-response curve.

A further data set has as its system peptic ulcers. To be noted: disclosed in Japanese Patent First Publications; cited from earlier work.

The ED50 is the dose that gives a 50% effect, or the effect in half of the subjects. In the case of `CCOC(=O)c1ccccc1NC(=O)[C@H]1CC[C@H](CNC(=N)N)CC1.Cl.O` [A, N-(o-Ethoxycarbonylphenyl)-trans-4-guanidinomethylcyclohexanecarboxamide hydrochloride monohydrate], the 50% effective dose (ED50) in data set [1] was 36 mg/kg; in data set [2], 33 mg/kg; in data set [3], 108 mg/kg. In the data set with Male ddY mice, the “MLD (acute toxicity)” value is > 3,000 mg/kg.
`COC(=O)c1ccccc1NC(=O)[C@H]1CC[C@H](CNC(=N)N)CC1.Cl.O` [B, N-(o-Methoxycarbonylphenyl)-trans-4-guanidinomethylcyclohexanecarboxamide hydrochloride monohydrate]: the ED50 stood at 42 mg/kg in data set [1], 40 mg/kg in data set [2] and 118 mg/kg in data set [3]. The “MLD (acute toxicity)” value with Male ddY mice is recorded as > 3,000 mg/kg.
For `Cl.N=C(N)NC[C@H]1CC[C@H](C(=O)Nc2ccccc2C(=O)O)CC1.O` [C, N-(o-Carboxyphenyl)-trans-4-guanidinomethylcyclohexanecarboxamide hydrochloride monohydrate], the ED50 in data set [1] came to 41 mg/kg; in data set [2] it was 37 mg/kg; in data set [3], 114 mg/kg. For the same molecule, the “MLD (acute toxicity)” value in the data set on Male ddY mice is given as > 3,000 mg/kg.
As for `Cl.N=C(N)NC[C@H]1CC[C@H](C(=O)Oc2ccccc2C(=O)OCc2ccccc2)CC1` [X, Trans-4-guanidinomethylcyclohexanecarboxylic acid o-benzyloxycarbonylphenylester hydrochloride, reference compound], the figures for the ED50 in data set [1], in data set [2] and in data set [3] were 108 mg/kg, 103 mg/kg and 376 mg/kg, respectively. Besides, the “anti-ulcer activity, in words” value in the data set with peptic ulcers is “shows an anti-ulcer activity”. Besides, in the data set with Male ddY mice, the “MLD (acute toxicity)” value was > 3,000 mg/kg.
In the case of `Cl.N=C(N)NC[C@H]1CC[C@H](C(=O)Nc2ccccc2)CC1` [Y, N-Phenyl-trans-4-guanidinomethylcyclohexanecarboxamide hydrochloride, reference compound], the 50% effective dose (ED50) in data set [1] stood at 199 mg/kg; in data set [2], 86 mg/kg; in data set [3] it was 135 mg/kg. Also, the “anti-ulcer activity, in words” value in the data set with peptic ulcers is “shows an anti-ulcer activity”. The “MLD (acute toxicity)” value with Male ddY mice is listed as < 1,000 mg/kg.
